The subject of experiment [1] is Leishmania donovani axenic amastigote parasites. The experiment can be described thus: Leishmania donovani axenic amastigote proliferation assay. Format: cell-based. Conditions: read-out: L. donovani amastigotes EC50. The gist of the method: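 EC50 values come from CellTiter-Glo luminescence after 2-day compound exposure of axenic amastigotes (9600 per well) at 37 °C, 5% CO2. Medium: RPMI 1640, 20% heat-inactivated FBS, folic acid, adenosine, D-glucose, 25 mM MES, adjusted to pH 5.5.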

The subject of experiment [2] is L. donovani HU3 strain in mouse peritoneal macrophages. Kind of experiment: Assay for proliferation of Leishmania parasites in mouse peritoneal macrophages. Format: cell-based, Leishmania donovani. The settings on record: Leishmania donovani, Peritoneal macrophage, read-out: L. donavani Macrophage EC50. The gist of the method: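 EC50 derives from counting SYBR Green-stained parasite nuclei by high-content imaging after 5 days' compound exposure. Host cells were uninfected BALB/c peritoneal macrophages, infected for 24 h before dosing with spleen-derived L. donovani HU3 parasites from mice infected 9–11 weeks.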

Experiment [3] has as its system Trypanosoma brucei Lister 427 strain bloodstream form. The experiment can be described thus: Assay for proliferation of kinetoplastid parasite Trypanosoma brucei. The format is cell-based. The settings on record: Lister 427 bloodstream form, 48 hours, read-out: T. brucei EC50. The source says: Assay for Proliferation of Kinetoplastid Parasite Trypanosoma brucei.
The proliferation is quantified by the addition of Cell Titer Glo (Promega®) a luminescent cell viability assay that measures the number of viable cells in culture based on the quantification of cellular ATP amount, which is an indicator of metabolically active cells.
The following assay illustrates the invention without in any way limiting the scope of the invention. This parasite proliferation assay measures the increase in parasite growth using an assay that measures ATP activity, Cell Titer Glo®.
Trypanosoma brucei Lister 427 strain is grown in HMI-9 Trypanosome media for T. brucei bloodstream form. 30 μl of HMI-9 media is dispensed into 384 well assay plates. 200 nl of compounds of the invention (in DMSO), including anti-trypanosome controls (Pentamidine and suramin), are then transferred into the assay plates, as well as DMSO alone to serve as a negative control for inhibition. Then 25 μl of a suspension of T. brucei culture in HMI-9 media is dispensed into the assay plates. The final concentration of parasites in culture corresponds to 1.7% of 0.5 uM ATP activity with Cell Titer Glo® in HMI-9 media. The plates are placed in a 37° C. incubator for 48 hours in an atmospheric environment containing 5% CO2. 40 μl of Cell Titer Glo® is dispensed into the plates. The plates are then read for luminescence. The percentage inhibition of 50%, EC50, is calculated for each compound.

Where two headings read alike, the source gives them in different places.

As for `Cc1cnc2nc(-c3cc(NC(=O)c4ccc(C(F)(F)F)nc4C)ccc3Cl)[nH]c2c1` [Compound 162], the 50% effective concentration (EC50) (in general, the midpoint of the concentration-response curve) was over 25 µM in experiment [1] (axenic amastigotes in vitro), over 50 µM in experiment [2] and 1.23 µM in experiment [3].

Consider `Cc1cnc2nc(-c3cc(NC(=O)c4cc(C)on4)ccc3Cl)[nH]c2c1` [Compound 79], for which the EC50 in experiment [1] (axenic amastigotes in vitro) was over 25 µM; in experiment [2], over 50 µM; in experiment [3], 12.5 µM.

For the compound `COc1ccnc(C(=O)Nc2ccc(Cl)c(-c3nc4ncc(C)cc4[nH]3)c2)c1` [Compound 173], the figures for the half-maximal effective concentration (EC50) in experiment [1] (axenic amastigotes in vitro), in experiment [2] and in experiment [3] were over 25 µM, 18.1 µM and over 13.8 µM, respectively.

Consider `Cc1cnc2nc(-c3cc(Nc4ccc(-n5cncn5)nc4)ccc3Cl)[nH]c2c1` [Compound 258], for which the EC50 in experiment [1] (axenic amastigotes in vitro) was over 25 µM; in experiment [2], over 50 µM; in experiment [3], over 15.4 µM.

As to `O=C(Nc1ccc(Cl)c(-c2nc3ncc(-c4ccc(OCCN5CCCCC5)cc4)cc3[nH]2)c1)c1ccco1` [Compound 21], the values for the EC50 in experiment [1] (axenic amastigotes in vitro), in experiment [2] and in experiment [3] were 16 µM, 2.8 µM and 0.063 µM, respectively.

In the case of `Cc1cnc2nc(-c3cc(Nc4ccc(N5CCOCC5)cn4)ccc3Cl)[nH]c2c1` [Compound 260], the 50% effective concentration (EC50) is over 25 µM in experiment [1] (axenic amastigotes in vitro), 29.3 µM in experiment [2] and 17.7 µM in experiment [3].

With `Cc1cnc2nc(-c3cc(NC(=O)Cc4c(F)cccc4F)ccc3Cl)[nH]c2c1` [Compound 87], the 50% effective concentration (EC50) was over 25 µM in experiment [1] (axenic amastigotes in vitro), 24.4 µM in experiment [2] and over 6.9 µM in experiment [3].

In the case of `Cc1ccc(Nc2ccc(Cl)c(-c3nc4ncc(C)cc4[nH]3)c2)nc1` [Compound 262], the values for the EC50 in experiment [1] (axenic amastigotes in vitro), in experiment [2] and in experiment [3] were over 25 µM, 13.5 µM and over 22.4 µM, respectively.

As for `Cc1cnc2nc(-c3cc(NC(=O)C(C)(C)N)ccc3Cl)[nH]c2c1` [Compound 194], the values for the 50% effective concentration (EC50) in experiment [1] (axenic amastigotes in vitro), in experiment [2] and in experiment [3] were over 25 µM, over 50 µM and over 11.7 µM, respectively.

Consider `Cc1cnc2nc(-c3cc(NC(=O)OCc4ccccc4)ccc3Cl)[nH]c2c1` [Compound 223], for which the EC50 in experiment [1] (axenic amastigotes in vitro) is over 25 µM; in experiment [2] it was 21.4 µM; in experiment [3], 14.1 µM.

As to `Cc1cnc2nc(-c3cc(NC(=O)Cc4ccc(C(F)(F)F)cc4)ccc3Cl)[nH]c2c1` [Compound 96], the EC50 in experiment [1] (axenic amastigotes in vitro) was over 25 µM; in experiment [2], 20.7 µM; in experiment [3], 8.9 µM.

Regarding `Cc1cnc2nc(-c3cc(NC(=O)Cc4ccc(Cl)cc4)ccc3Cl)[nH]c2c1` [Compound 144], the 50% effective concentration (EC50) in experiment [1] (axenic amastigotes in vitro) was over 25 µM; in experiment [2] it was 26 µM; in experiment [3] it was over 11.3 µM.

Consider `Cc1cnc2nc(-c3cc(NC(=O)Cc4ccc(F)c(F)c4)ccc3Cl)[nH]c2c1` [Compound 142], for which the results for the EC50 in experiment [1] (axenic amastigotes in vitro), in experiment [2] and in experiment [3] were over 25 µM, 20.7 µM and over 14 µM, respectively.

For `Cc1cnc2nc(-c3cc(NC(=O)c4ccc(S(C)(=O)=O)cc4)ccc3Cl)[nH]c2c1` [Compound 193], the EC50 in experiment [1] (axenic amastigotes in vitro) is over 25 µM; in experiment [2], over 50 µM; in experiment [3] it was 15.2 µM.

For `COc1ccc(-c2cnc3nc(-c4cc(NC(=O)c5ccco5)ccc4Cl)[nH]c3c2)c(OC)n1` [Compound 61], the EC50 in experiment [1] (axenic amastigotes in vitro) is 1.13 µM; in experiment [2] it was 3.2 µM; in experiment [3] it was 0.182 µM.

With `Cc1cnc2nc(-c3cc(NC(=O)c4ccncc4)ccc3Cl)[nH]c2c1` [Compound 212], the concentration giving a half-maximal response (EC50) worked out at 6.6 µM in experiment [1] (axenic amastigotes in vitro), 22.5 µM in experiment [2] and 2.65 µM in experiment [3].

As for `Cc1cnc2nc(-c3cc(NC(=O)c4cscn4)ccc3Cl)[nH]c2c1` [Compound 205], the figures for the EC50 in experiment [1] (axenic amastigotes in vitro), in experiment [2] and in experiment [3] were 14.3 µM, over 46.3 µM and 1.26 µM, respectively.

Regarding `Cc1cnc2nc(-c3cc(NC(=O)C(F)(F)c4ccccc4)ccc3Cl)[nH]c2c1` [Compound 164], the EC50 in experiment [1] (axenic amastigotes in vitro) was over 25 µM; in experiment [2], 23.4 µM; in experiment [3] it was 12.6 µM.

As for `Cc1cnc2nc(-c3cc(NC(=O)NC(C)C)ccc3Cl)[nH]c2c1` [Compound 249], the concentration giving a half-maximal response (EC50) was over 25 µM in experiment [1] (axenic amastigotes in vitro), over 30 µM in experiment [2] and 14.1 µM in experiment [3].

With `Cc1cnc2nc(-c3cc(NC(=O)Cn4ccnc4)ccc3Cl)[nH]c2c1` [Compound 197], the 50% effective concentration (EC50) in experiment [1] (axenic amastigotes in vitro) was over 25 µM; in experiment [2] it was over 50 µM; in experiment [3] it was over 22.3 µM.

`Cc1cnc2nc(-c3cc(NC(=O)Cc4ncccn4)ccc3Cl)[nH]c2c1` [Compound 145]: the values for the EC50 in experiment [1] (axenic amastigotes in vitro), in experiment [2] and in experiment [3] were over 25 µM, over 50 µM and 16.1 µM, respectively.

As for `CC(C)OC(=O)Nc1ccc(-c2cnc3nc(-c4cc(NC(=O)c5ccco5)ccc4Cl)[nH]c3c2)cc1` [Compound 31], the EC50 was 0.177 µM in experiment [1] (axenic amastigotes in vitro) and 0.45 µM in experiment [2].

Consider `Cc1cnc2nc(-c3cc(NC(=O)c4ccc(F)o4)ccc3Cl)[nH]c2c1` [Compound 90], for which the values for the EC50 in experiment [1] (axenic amastigotes in vitro) and in experiment [2] were 1.88 µM and 8 µM, respectively.

Turning to `CC(C)c1cnc2nc(-c3cc(NC(=O)c4ccco4)ccc3Cl)[nH]c2c1` [Compound 77], the EC50 in experiment [1] (axenic amastigotes in vitro) is 6.7 µM; in experiment [2], 35 µM.

Take `CCc1nnc(C(=O)Nc2ccc(F)c(-c3nc4ncc(Br)cc4o3)c2)o1` [Example 404, N-(3-{6-bromo-[1,3]oxazolo[4,5-b]pyridin-2-yl}-4-fluorophenyl)-5-ethyl-1,3,4-oxadiazole-2-carboxamide]: the EC50 in experiment [1] (axenic amastigotes in vitro) is over 25 µM; in experiment [2], over 50 µM.

In the case of `CN(C)Cc1ccc(C(=O)Nc2ccc(Cl)c(-c3nc4ncc(C(F)(F)F)cc4[nH]3)c2)o1` [Compound 277], the EC50 in experiment [1] (axenic amastigotes in vitro) was over 25 µM; in experiment [2], 15.2 µM.

Consider `CC(C)OC(=O)Nc1ccc(Cl)c(-c2nc3ncc(-c4ccc(NC(=O)CCN)cc4)cc3[nH]2)c1` [Compound 339], for which the concentration giving a half-maximal response (EC50) in experiment [1] (axenic amastigotes in vitro) was 3.7 µM; in experiment [2], 1.82 µM.

As to `CN(C)Cc1ccc(-c2cnc3nc(-c4cc(NC(=O)c5ccco5)ccc4Cl)[nH]c3c2)cc1` [Compound 15], the EC50 in experiment [1] (axenic amastigotes in vitro) turned out to be 6.1 µM; in experiment [2], 0.72 µM.

Take `COC(=O)Nc1ccc(-c2cnc3nc(-c4cc(NC(=O)N5CCC(F)(F)C5)ccc4Cl)[nH]c3c2)cc1` [Example 343, Methyl N-[4-(2-{2-chloro-5-[(3,3-difluoropyrrolidin-1-yl)carbonylamino]phenyl}-1H-imidazo [4,5-b]pyridin-6-yl)phenyl]carbamate]: the EC50 in experiment [1] is 0.245 µM; in experiment [2] it was 0.51 µM.

Take `O=C(Nc1ccc(Cl)c(-c2nc3ncc(Br)cc3[nH]2)c1)c1ccc(F)o1` [Compound 373]: the concentration giving a half-maximal response (EC50) in experiment [1] (axenic amastigotes in vitro) came to 0.55 µM; in experiment [2] it was 2.15 µM.

For the compound `[2H]C([2H])([2H])C([2H])([2H])OC(=O)Nc1ccc(Cl)c(-c2nc3ncc(C)cc3[nH]2)c1` [Compound 215], the EC50 in experiment [1] (axenic amastigotes in vitro) was determined as 13.3 µM; in experiment [2], 18.1 µM.

Turning to `COc1ncc(-c2cnc3nc(-c4cc(NC(=O)c5ccco5)ccc4Cl)[nH]c3c2)cn1` [Compound 9], the results for the EC50 in experiment [1] (axenic amastigotes in vitro) and in experiment [2] were 0.45 µM and 1.2 µM, respectively.

Regarding `Nc1ccccc1-c1cnc2nc(-c3cc(NC(=O)c4ccco4)ccc3Cl)[nH]c2c1` [Compound 23], the concentration for a half-maximal effect (EC50) amounted to 0.32 µM in experiment [1] (axenic amastigotes in vitro) and 0.37 µM in experiment [2].

As to `O=C(Nc1ccc(Cl)c(-c2nc3ncncc3[nH]2)c1)c1ccco1` [Compound 4], the half-maximal effective concentration (EC50) in experiment [1] (axenic amastigotes in vitro) was 4.2 µM; in experiment [2] it was 25.5 µM.

On to `Cc1cnc2nc(-c3cc(NC(=O)Cc4cc(C)no4)ccc3Cl)[nH]c2c1` [Compound 88], for which the concentration for a half-maximal effect (EC50) was over 25 µM in experiment [1] (axenic amastigotes in vitro) and over 50 µM in experiment [2].

Take `CC(C)C(=O)Nc1ccc(-c2cnc3nc(-c4cc(NC(=O)c5ccco5)ccc4Cl)[nH]c3c2)cc1` [Compound 53]: the EC50 in experiment [1] (axenic amastigotes in vitro) was determined as 0.112 µM; in experiment [2] it was 0.154 µM.

On to `CC(C)(C)C(=O)Nc1ccc(F)c(-c2nc3ncc(Cl)cc3[nH]2)c1` [Compound 358], for which the concentration for a half-maximal effect (EC50) in experiment [1] (axenic amastigotes in vitro) was over 25 µM; in experiment [2], over 50 µM.

In the case of `COCn1c(-c2cc(NC(=O)N3CCCC3)ccc2Cl)nc2cc(Br)cnc21` [Example 385, N-{3-[6-bromo-3-(methoxymethyl)-3H-imidazo[4,5-b]pyridin-2-yl]-4-chlorophenyl}pyrrolidine-1-carboxamide], the EC50 in experiment [1] is over 23.2 µM; in experiment [2], over 10.9 µM.

`Cc1cnc2nc(-c3cc(NC(=O)CO)ccc3Cl)[nH]c2c1` [Compound 183]: the half-maximal effective concentration (EC50) in experiment [1] (axenic amastigotes in vitro) was over 25 µM; in experiment [2] it was over 50 µM.

As to `Cc1ncoc1C(=O)Nc1ccc(F)c(-c2nc3ncc(Br)cc3o2)c1` [Compound 409], the figures for the EC50 in experiment [1] (axenic amastigotes in vitro) and in experiment [2] were 7.5 µM and over 50 µM, respectively.

With `CC(C)Cc1cnc2nc(-c3cc(NC(=O)c4ccco4)ccc3Cl)[nH]c2c1` [Compound 76], the concentration giving a half-maximal response (EC50) was over 25 µM in experiment [1] (axenic amastigotes in vitro) and over 50 µM in experiment [2].

The values are drawn from US9233961B2, “Compounds and compositions for the treatment of parasitic diseases” (Novartis AG, priority 2013, dated 2016).
